Experimental data: patent US20050014706A1, “Method of treating tuberculosis” (priority 2003, published 2005)
Values after ≈ are worked out from the molar mass of the structure shown. Where two headings read alike, the source gives them in different places.

Tests used:
M. tuberculosis H37Rv = assay: MIC vs. M. tuberculosis H37Rv, microplate Alamar Blue assay (MABA); assay type: cell-based
VERO cells = assay: Cytotoxicity against VERO cells (MTS, 72 hours); details: read-out: Vero IC50 (toxicity), Vero cells
[1] = Table 3, parallel-synthesis carbazate library products
[2] = Table 1a, 11,12-carbamate derivatives, read-out: Anti-TB Activity MIC

Row | Compound | MIC (M. tuberculosis H37Rv; [1]) | other results
1 | CC[C@H]1OC(=O)[C@H](C)[C@@H](O[C@H]2CC(C)(OC)[C@@H](O)[C@H](C)O2)[C@H](C)[C@@H](O[C@@H]2O[C@H](C)C[C@H](N(C)C)[C@H]2O)[C@](C)(OC)C[C@@H](C)C(=O)[C@H](C)[C@H]2N(NCc3cccnc3NC(=O)C(C)(C)C)C(=O)O[C@]12C (some centres unmarked) [E4′] | >27 µM | 
2 | CC[C@H]1OC(=O)[C@H](C)[C@@H](O[C@H]2CC(C)(OC)[C@@H](O)[C@H](C)O2)[C@H](C)[C@@H](O[C@@H]2O[C@H](C)C[C@H](N(C)C)[C@H]2O)[C@](C)(OC)C[C@@H](C)C(=O)[C@H](C)[C@H]2N(NCc3c(-c4ccccc4)noc3C)C(=O)O[C@]12C (some centres unmarked) [C10′] | 12 µM (≈ 11.5 µg/mL) | 
3 | CC[C@H]1OC(=O)[C@H](C)[C@@H](O[C@H]2CC(C)(OC)[C@@H](O)[C@H](C)O2)[C@H](C)[C@@H](O[C@@H]2O[C@H](C)C[C@H](N(C)C)[C@H]2O)[C@](C)(OC)C[C@@H](C)C(=O)[C@H](C)[C@H]2N(/N=C/c3c(C)noc3-c3ccccc3)C(=O)O[C@]12C (some centres unmarked) [C12′] | 9 µM (≈ 8.61 µg/mL) | 
4 | CC[C@H]1OC(=O)[C@H](C)[C@@H](O[C@H]2CC(C)(OC)[C@@H](O)[C@H](C)O2)[C@H](C)[C@@H](O[C@@H]2O[C@H](C)C[C@H](N(C)C)[C@H]2O)[C@](C)(OC)C[C@@H](C)C(=O)[C@H](C)[C@H]2N(NCc3c[nH]c(=O)[nH]c3=O)C(=O)O[C@]12C (some centres unmarked) [E8′] | >20 µM | 
5 | CCC1OC(=O)C(C)(F)C(=O)C(C)C(OC2OC(C)CC(N(C)C)C2O)C(C)(OC)CC(C)C(=O)C(C)C2N(NCCCc3ccnc4ccccc34)C(=O)OC12C (centres unmarked) [RU3562] |  | MIC (M. tuberculosis H37Rv; [2]): 16 µM (≈ 13 µg/mL)
6 | CC[C@H]1OC(=O)[C@H](C)[C@@H](O[C@H]2CC(C)(OC)[C@@H](O)[C@H](C)O2)[C@H](C)[C@@H](O[C@@H]2O[C@H](C)C[C@H](N(C)C)[C@H]2O)[C@](C)(OC)C[C@@H](C)C(=O)[C@H](C)[C@H]2N(NC/C=C/c3ccccc3)C(=O)O[C@]12C (some centres unmarked) [A4′] | 7 µM (≈ 6.33 µg/mL) | 
7 | CC[C@H]1OC(=O)[C@H](C)[C@@H](O[C@H]2CC(C)(OC)[C@@H](O)[C@H](C)O2)[C@H](C)[C@@H](O[C@@H]2O[C@H](C)C[C@H](N(C)C)[C@H]2O)[C@](C)(OC)C[C@@H](C)C(=O)[C@H](C)[C@H]2N(NCc3c(Cl)cccc3Cl)C(=O)O[C@]12C (some centres unmarked) [H1′] | 11 µM (≈ 10.4 µg/mL) | 
8 | CC[C@H]1OC(=O)[C@H](C)[C@@H](O[C@H]2CC(C)(OC)[C@@H](O)[C@H](C)O2)[C@H](C)[C@@H](O[C@@H]2O[C@H](C)C[C@H](N(C)C)[C@H]2O)[C@](C)(OC)C[C@@H](C)C(=O)[C@H](C)[C@H]2N(NCc3cn(Cc4ccccc4)c4ccccc34)C(=O)O[C@]12C (some centres unmarked) [C2′] | 7 µM (≈ 7.05 µg/mL) | 
9 | CC[C@H]1OC(=O)[C@H](C)[C@@H](O[C@H]2CC(C)(OC)[C@@H](O)[C@H](C)O2)[C@H](C)[C@@H](O[C@@H]2O[C@H](C)C[C@H](N(C)C)[C@H]2O)[C@](C)(OC)C[C@@H](C)C(=O)[C@H](C)[C@H]2N(/N=C/c3cc(-c4cccs4)on3)C(=O)O[C@]12C (some centres unmarked) [C8′] | ?9 μM | 
10 | CC[C@H]1OC(=O)[C@H](C)[C@@H](O[C@H]2CC(C)(OC)[C@@H](O)[C@H](C)O2)[C@H](C)[C@@H](O[C@@H]2O[C@H](C)C[C@H](N(C)C)[C@H]2O)[C@](C)(OC)C[C@@H](C)C(=O)[C@H](C)[C@H]2N(NCc3sc(C)nc3C)C(=O)O[C@]12C (some centres unmarked) [F5′] | >19 µM | 
11 | CC[C@H]1OC(=O)[C@H](C)[C@@H](O[C@H]2CC(C)(OC)[C@@H](O)[C@H](C)O2)[C@H](C)[C@@H](O[C@@H]2O[C@H](C)C[C@H](N(C)C)[C@H]2O)[C@](C)(OC)C[C@@H](C)C(=O)[C@H](C)[C@H]2N(NCc3cnccc3NC(=O)C(C)(C)C)C(=O)O[C@]12C (some centres unmarked) [E2′] | >27 µM | 
12 | cethromycin [ABT773, reference compound] |  | MIC against M. tuberculosis (M. tuberculosis H37Rv): 3 µM; MIC (M. tuberculosis H37Rv; [2]): 3 µM; IC50 (VERO cells; Table 1a): > 105 µM
13 | CC[C@H]1OC(=O)[C@H](C)[C@@H](O[C@H]2CC(C)(OC)[C@@H](O)[C@H](C)O2)[C@H](C)[C@@H](O[C@@H]2O[C@H](C)C[C@H](N(C)C)[C@H]2O)[C@](C)(OC)C[C@@H](C)C(=O)[C@H](C)[C@H]2N(NCc3cccn3-c3ccc(Cl)cc3)C(=O)O[C@]12C (some centres unmarked) [E12′] | 3.4 µM (≈ 3.32 µg/mL) | 
14 | CC[C@H]1OC(=O)[C@H](C)[C@@H](O[C@H]2CC(C)(OC)[C@@H](O)[C@H](C)O2)[C@H](C)[C@@H](O[C@@H]2O[C@H](C)C[C@H](N(C)C)[C@H]2O)[C@](C)(OC)C[C@@H](C)C(=O)[C@H](C)[C@H]2N(NCc3ccoc3)C(=O)O[C@]12C (some centres unmarked) [A10′] | >7 µM | 
15 | CC[C@H]1OC(=O)[C@H](C)[C@@H](O[C@H]2CC(C)(OC)[C@@H](O)[C@H](C)O2)[C@H](C)[C@@H](O[C@@H]2O[C@H](C)C[C@H](N(C)C)[C@H]2O)[C@](C)(OC)C[C@@H](C)C(=O)[C@H](C)[C@H]2N(NCc3ccc([N+](=O)[O-])o3)C(=O)O[C@]12C (some centres unmarked) [A8′] | >9 µM | 
16 | CC[C@H]1OC(=O)[C@H](C)[C@@H](O[C@H]2CC(C)(OC)[C@@H](O)[C@H](C)O2)[C@H](C)[C@@H](O[C@@H]2O[C@H](C)C[C@H](N(C)C)[C@H]2O)[C@](C)(OC)C[C@@H](C)C(=O)[C@H](C)[C@H]2N(NCc3[nH]ncc3Br)C(=O)O[C@]12C (some centres unmarked) [D1′] | 23 µM (≈ 21.8 µg/mL) | 
17 | CC[C@H]1OC(=O)[C@H](C)C(=O)[C@H](C)[C@@H](O[C@@H]2O[C@H](C)C[C@H](N(C)C)[C@H]2O)[C@](C)(OC)C[C@@H](C)C(=O)[C@H](C)[C@H]2N(CCCn3cnc4c3c(=O)n(C)c(=O)n4C)C(=O)O[C@]12C [RU66740] |  | MIC (M. tuberculosis H37Rv; [2]): >128 µM
18 | CC[C@H]1OC(=O)[C@H](C)[C@@H](O[C@H]2C[C@@](C)(OC)[C@@H](O)[C@H](C)O2)[C@H](C)[C@@H](O[C@@H]2O[C@H](C)C[C@H](N(C)C)[C@H]2O)[C@](C)(O)C[C@@H](C)/C(=N\OCOCc2ccccc2)[C@H](C)[C@@H](O)[C@]1(C)O [RU29558] |  | MIC (M. tuberculosis H37Rv; Table 2a, 11,12-diols, read-out: Anti-TB Activity MIC): 7 µM (≈ 6.08 µg/mL); IC50 (VERO cells; Table 2a): 28.2 µM
19 | CC[C@H]1OC(=O)[C@H](C)[C@@H](O[C@H]2CC(C)(OC)[C@@H](O)[C@H](C)O2)[C@H](C)[C@@H](O[C@@H]2O[C@H](C)C[C@H](N(C)C)[C@H]2O)[C@](C)(OC)C[C@@H](C)C(=O)[C@H](C)[C@H]2N(NCc3ccnc4ccccc34)C(=O)O[C@]12C (some centres unmarked) [D11′] | 16 µM (≈ 14.9 µg/mL) | 
20 | CC[C@H]1OC(=O)[C@H](C)[C@@H](O[C@H]2CC(C)(OC)[C@@H](O)[C@H](C)O2)[C@H](C)[C@@H](O[C@@H]2O[C@H](C)C[C@H](N(C)C)[C@H]2O)[C@](C)(OC)C[C@@H](C)C(=O)[C@H](C)[C@H]2N(NCCCc3ccccc3)C(=O)O[C@]12C (some centres unmarked) [A2′] | 10 µM (≈ 9.06 µg/mL) | 
21 | CCCCc1nc(CNN2C(=O)O[C@]3(C)[C@@H](CC)OC(=O)[C@H](C)[C@@H](O[C@H]4CC(C)(OC)[C@@H](O)[C@H](C)O4)[C@H](C)[C@@H](O[C@@H]4O[C@H](C)C[C@H](N(C)C)[C@H]4O)[C@](C)(OC)C[C@@H](C)C(=O)[C@H](C)[C@@H]23)c(Cl)[nH]1 (some centres unmarked) [B7′] | >19 µM | 
22 | CC[C@H]1OC(=O)[C@H](C)[C@@H](O[C@H]2CC(C)(OC)[C@@H](O)[C@H](C)O2)[C@H](C)[C@@H](O[C@@H]2O[C@H](C)C[C@H](N(C)C)[C@H]2O)[C@](C)(OC)C[C@@H](C)C(=O)[C@H](C)[C@H]2N(NCc3cnn(-c4ccc(F)cc4)c3C)C(=O)O[C@]12C (some centres unmarked) [D7′] | 13 µM (≈ 12.7 µg/mL) | 
23 | CC[C@H]1OC(=O)[C@H](C)[C@@H](O[C@H]2CC(C)(OC)[C@@H](O)[C@H](C)O2)[C@H](C)[C@@H](O[C@@H]2O[C@H](C)C[C@H](N(C)C)[C@H]2O)[C@](C)(OC)C[C@@H](C)C(=O)[C@H](C)[C@H]2N(NCc3cc(Cl)cc(Br)c3O)C(=O)O[C@]12C (some centres unmarked) [G8′] | 14 µM (≈ 14.1 µg/mL) | 
